Data: patent US20220298115A1, “SMALL MOLECULE INHIBITORS OF ACETYL COENZYME A SYNTHETASE SHORT CHAIN 2 (ACSS2)” (Curadev Pharma Pvt. Ltd., priority 2019, published 2022)

Legend:
[1] = system: [14C] acetate incorporation in macromolecules, BT474 cells; assay: Cell based [14C] acetate incorporation assay; settings: Homo sapiens, BT-474, 3 h at 37° C., read-out: Cellular Activity (IC50 range)
Outline: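 BT474 cells (4×10^4/well, plated overnight) were preincubated with compound for 10 min at 37°C in HBSS. They were then given 0.1 μCi [14C]acetate plus 10 μM unlabelled acetate (both in the added acetate solution) for 3 h at 37°C, 5% CO2. Label incorporated into macromolecules was harvested onto PEI-treated filters and counted by scintillation.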

[2] = target: T1, human ACSS2 (Homo sapiens, UniProt Q9NR19); assay: ACSS2 enzyme assay (acetyl-CoA formation, LC-MS/MS); assay type: biochemical; settings: cytosolic fraction of BT474 cells as ACSS2 source; 100 μM acetate, CoA and ATP; 2 h at 25° C.; read-out: Enzyme Activity (IC50 range)
T1 construct: The cytosolic fraction of BT474 cells was used as a source of the ACSS2 enzyme; endogenous in cells; host or cells: BT474 cells (cytosolic fraction)
Outline: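 Enzyme source was BT474 cytosolic fraction (100 ng), preincubated 5 min with compound in 25 mM Tris-HCl pH7.4, 1 mM MgCl2, 1 mM DTT, 0.05% Tween20, 1% DMSO. Reaction started with 100 μM each of acetate, CoA and ATP, 2 h at 25 °C, stopped with TCA; acetyl-CoA quantified by LC-MS/MS.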

T1 sequence (Q9NR19 whole entry): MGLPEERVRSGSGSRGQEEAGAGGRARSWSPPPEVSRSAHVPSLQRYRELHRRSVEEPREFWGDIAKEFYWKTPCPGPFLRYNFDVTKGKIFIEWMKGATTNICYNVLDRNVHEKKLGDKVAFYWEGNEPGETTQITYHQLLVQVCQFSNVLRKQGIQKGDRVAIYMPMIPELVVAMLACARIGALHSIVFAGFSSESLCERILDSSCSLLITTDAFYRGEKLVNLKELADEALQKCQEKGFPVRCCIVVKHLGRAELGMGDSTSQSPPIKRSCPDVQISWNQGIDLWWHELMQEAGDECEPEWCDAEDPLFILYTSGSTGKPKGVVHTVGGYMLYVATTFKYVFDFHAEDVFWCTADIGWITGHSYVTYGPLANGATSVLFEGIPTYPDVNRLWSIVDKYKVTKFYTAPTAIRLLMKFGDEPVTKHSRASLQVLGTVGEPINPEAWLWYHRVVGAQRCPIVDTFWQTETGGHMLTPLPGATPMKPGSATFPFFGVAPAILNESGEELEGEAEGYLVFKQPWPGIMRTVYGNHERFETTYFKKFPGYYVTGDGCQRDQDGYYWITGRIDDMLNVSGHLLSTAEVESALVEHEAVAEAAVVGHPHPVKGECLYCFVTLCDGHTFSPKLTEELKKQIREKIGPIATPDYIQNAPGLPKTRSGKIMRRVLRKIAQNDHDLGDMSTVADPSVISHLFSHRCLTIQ

| SMILES | IC50 [1] [nM] | IC50 [2] [nM] |
| --- | --- | --- |
| CC[C@@H](O)CNC(=O)Nc1ccc2nc(C)c(-c3ccccc3)cc2c1-c1cnn(C)c1 [Example 96, (R)-1-(2-hydroxybutyl)-3-(2-methyl-5-(1-methyl-1H-pyrazol-4-yl)-3-phenylquinolin-6-yl)urea] | < 100 | < 100 |
| CCC(CNC(=O)Nc1ccc2nc(C)c(-c3ccccc3)cc2c1)NC(C)=O (stereo not drawn) [Example 99, N-(1-(3-(2-methyl-3-phenylquinolin-6-yl)ureido)butan-2-yl)acetamide] | ≤ 1000 | ≤ 1000 |
| CC[C@@H](O)CNC(=O)Nc1ccc2nc(C)c(-c3ccccc3F)cc2c1 [Example 100, (R)-1-(3-(2-fluorophenyl)-2-methylquinolin-6-yl)-3-(2-hydroxybutyl) urea] | < 100 | < 100 |
| CCC(F)(F)CNC(=O)Nc1ccc2nc(C)c(-c3ccccc3)cc2c1 [Example 105, 1-(2,2-difluorobutyl)-3-(2-methyl-3-phenylquinolin-6-yl)urea] | < 100 | < 100 |
| CCC(F)(F)CNC(=O)Nc1ccc2nc(C)c(-c3ccccc3F)cc2c1 [Example 110, 1-(2,2-difluorobutyl)-3-(3-(2-fluorophenyl)-2-methylquinolin-6-yl)urea] | < 100 | < 100 |
| CC[C@@H](O)CNC(=O)Nc1ccc2nc(C)c(-c3ccccc3F)cc2c1-c1ccc[nH]c1=O [Example 111, (R)-1-(3-(2-fluorophenyl)-2-methyl-5-(2-oxo-1,2-dihydropyridin-3-yl)quinolin-6-yl)-3-(2-hydroxybutyl) urea] | ≤ 1000 | < 100 |
| CC[C@@H](O)CNC(=O)Nc1ccc2nc(-c3ccccc3)c(C)c(C(=O)NCc3cnn(C)c3)c2c1 [Example 114, (R)-6-(3-(2-hydroxybutyl)ureido)-3-methyl-N-((1-methyl-1H-pyrazol-4-yl)methyl)-2-phenylquinoline-4-carboxamide] | ≤ 1000 | < 100 |
| CC[C@@H](O)CNC(=O)Nc1ccc2nc(-c3ccccc3)c(C)c(C(=O)Nc3ccn(C)n3)c2c1 [Example 115, (R)-6-(3-(2-Hydroxybutyl)ureido)-3-methyl-N-(1-methyl-1H-pyrazol-3-yl)-2-phenylquinoline-4-carboxamide] | ≤ 1000 | < 100 |
| COCCNC(=O)Nc1ccc2nc(C)c(-c3ccccc3F)cc2c1 [Example 116, 1-(3-(2-fluorophenyl)-2-methylquinolin-6-yl)-3-(2-methoxyethyl) urea] | < 100 | ≤ 1000 |
| CC[C@H](CNC(=O)Nc1ccc2nc(-c3ccccc3)c(-c3ccccc3F)cc2c1)OP(=O)(O)O [Example 117, (R)-1-(3-(3-(2-fluorophenyl)-2-phenylquinolin-6-yl)ureido)butan-2-yl dihydrogen phosphate] | < 100 | < 100 |
| CCCCCC(=O)Nc1ccc2nc(-c3ccccc3)c(-c3ccccc3)cc2c1 [Example 118, N-(2,3-diphenyl-quinolin-6-yl) hexanamide] | ≤ 1000 | ≤ 1000 |
| CCCCCC(=O)Nc1ccc2nc(-c3ccccc3OC)c(-c3ccccc3OC)cc2c1 [Example 119, N-(2,3-bis(2-methoxy-phenyl)quinolin-6-yl) hexanamide] | < 100 | < 100 |
| CCC(=O)CCC(=O)Nc1ccc2nc(-c3ccccc3OC)c(-c3ccccc3)cc2c1 [Example 120, N-(2-(2-methoxy-phenyl)-3-phenyl-quinolin-6-yl)-4-oxohexan-amide] | < 100 | < 100 |
| CCCCCC(=O)Nc1ccc2nc(-c3ccccc3F)c(-c3ccccc3F)cc2c1 [Example 121, N-(2,3-bis(2-fluorophenyl)quinolin-6-yl) hexanamide] | ≤ 1000 | < 100 |
| CCCCC(F)(F)C(=O)Nc1ccc2nc(-c3ccccc3)c(-c3ccccc3)cc2c1 [Example 122, N-(2,3-diphenyl-quinolin-6-yl)-2,2-difluoro-hexanamide] | > 10000 | ≤ 10000 |
| CCC(=O)CCC(=O)Nc1ccc2nc(-c3ccccc3F)c(-c3ccccc3)cc2c1 [Example 123, N-(2-(2-fluorophenyl)-3-phenyl-quinolin-6-yl)-4-oxohexan-amide] | < 100 | < 100 |
| CCC(=O)CCC(=O)Nc1ccc2nc(-c3ccccc3F)c(-c3ccccc3F)cc2c1 [Example 124, N-(2,3-Bis(2-fluorophenyl)quinolin-6-yl)-4-oxohexanamide] | < 100 | < 100 |
| CCC(=O)CCC(=O)Nc1ccc2nc(-c3ccccc3)c(-c3ccccc3)cc2c1 [Example 125, N-(2,3-diphenyl-quinolin-6-yl)-4-oxohexan-amide] | < 100 | < 100 |
| CCC(=O)CCC(=O)Nc1ccc2nc(-c3ccccc3OC)c(-c3ccccc3F)cc2c1 [Example 126, N-(3-(2-fluoro-phenyl)-2-(2-methoxy-phenyl)quinolin-6-yl)-4-oxohexan-amide] | < 100 | < 100 |
| CCC(O)CCC(=O)Nc1ccc2nc(-c3ccccc3F)c(-c3ccccc3F)cc2c1 (stereo not drawn) [Example 128, N-(2,3-Bis(2-fluorophenyl)quinolin-6-yl)-4-hydroxyhexanamide] | < 100 | < 100 |

Second part, the compound after the results:

| IC50 [1] [nM] | IC50 [2] [nM] | SMILES |
| --- | --- | --- |
| ≤ 1000 | < 100 | CCC(O)CNC(=O)Nc1ccc2nc(C)c(-c3ccccc3)c(NC(C)=O)c2c1 (stereo not drawn) [Example 93, N-(6-(3-(2-hydroxybutyl)ureido)-2-methyl-3-phenylquinolin-4-yl)acetamide] |
| < 100 | < 100 | CCC(O)CNC(=O)Nc1ccc2nc(-c3ccccc3)c(-c3ccccc3)c(NS(C)(=O)=O)c2c1 (stereo not drawn) [Example 94, N-(6-(3-(2-Hydroxybutyl)ureido)-2,3-diphenylquinolin-4-yl)methanesulfonamide] |
| < 100 | < 100 | CCC(O)CNC(=O)Nc1ccc2nc(-c3ccccc3)c(-c3ccccc3)c(N)c2c1 (stereo not drawn) [Example 95, 1-(4-Amino-2,3-diphenylquinolin-6-yl)-3-(2-hydroxybutyl)urea] |
| < 100 | < 100 | CCC(O)CNC(=O)Nc1ccc2nc(-c3ccccc3)c(-c3ccccc3)c(-c3ncco3)c2c1 (stereo not drawn) [Example 97, 1-(2-hydroxybutyl)-3-(4-(oxazol-2-yl)-2,3-diphenylquinolin-6-yl)urea] |
| < 100 | ≤ 1000 | CCC(O)CNC(=O)Nc1ccc2nc(C)c(-c3ccccc3)c(C#N)c2c1 (stereo not drawn) [Example 98, 1-(4-cyano-2-methyl-3-phenylquinolin-6-yl)-3-(2-hydroxybutyl) urea] |
| < 100 | < 100 | CC[C@@H](O)CNC(=O)Nc1ccc2nc(-c3ccccc3)c(-c3ccccc3)c(OC)c2c1 [Example 101, (R)-1-(2-Hydroxybutyl)-3-(4-methoxy-2,3-diphenylquinolin-6-yl)urea] |
| < 100 | < 100 | CC[C@@H](O)CNC(=O)Nc1ccc2nc(C)c(-c3ccccc3)c(OC)c2c1 [Example 102, (R)-1-(2-hydroxybutyl)-3-(4-methoxy-2-methyl-3-phenylquinolin-6-yl)urea] |
| < 100 | < 100 | CC[C@@H](O)CNC(=O)Nc1ccc2nc(-c3ccccc3)c(-c3ccccc3)c(C)c2c1 [Example 103, (R)-1-(2-hydroxybutyl)-3-(4-methyl-2,3-diphenylquinolin-6-yl)urea] |
| < 100 | < 100 | CC[C@@H](O)CNC(=O)Nc1ccc2nc(-c3ccccc3)c(C)c(C(=O)NCc3ccccc3)c2c1 [Example 104, (R)-N-benzyl-6-(3-(2-hydroxybutyl)ureido)-3-methyl-2-phenylquinoline-4-carboxamide] |
| < 100 | < 100 | CCC(F)(F)CNC(=O)Nc1ccc2nc(-c3ccccc3)c(-c3ccccc3)c(C(N)=O)c2c1 [Example 106, 6-(3-(2,2-difluorobutyl)ureido)-2,3-diphenylquino-line-4-carboxamide] |
| < 100 | < 100 | CCC(F)(F)CNC(=O)Nc1ccc2nc(-c3ccccc3)c(-c3ccccc3)cc2c1 [Example 107, 1-(2,2-difluorobutyl)-3-(2,3-diphenylquinolin-6-yl)urea] |
| < 100 | < 100 | CC[C@@H](O)CNC(=O)Nc1ccc2nc(-c3ccccc3)c(C)c(C(=O)NC)c2c1 [Example 108, (R)-6-(3-(2-hydroxybutyl)ureido)-N,3-dimethyl-2-phenylquinoline-4-carboxamide] |
| ≤ 1000 | < 100 | CC[C@@H](O)CNC(=O)Nc1ccc2nc(-c3ccccc3)c(C)c(C(N)=O)c2c1 [Example 109, (R)-6-(3-(2-hydroxybutyl)ureido)-3-methyl-2-phenylquinoline-4-carboxamide] |
| < 100 | < 100 | CC[C@@H](O)CNC(=O)Nc1ccc2nc(-c3ccccc3)c(-c3ccccc3)c(C(=O)Nc3ccn(C)n3)c2c1 [Example 112, (R)-6-(3-(2-hydroxybutyl)ureido)-N-(1-methyl-1H-pyrazol-3-yl)-2,3-diphenylquino-line-4-carboxamide] |
| < 100 | < 100 | CC[C@@H](O)CNC(=O)Nc1ccc2nc(C)c(-c3ccccc3)c(C)c2c1 [Example 113, (R)-1-(2,4-dimethyl-3-phenylquinolin-6-yl)-3-(2-hydroxybutyl) urea] |
| < 100 | < 100 | CCC(O)CCC(=O)Nc1ccc2nc(-c3ccccc3)c(-c3ccccc3)cc2c1 (stereo not drawn) [Example 127, N-(2,3-diphenyl-quinolin-6-yl)-4-hydroxy-hexanamide] |
